For one series, the target named is HCV replicon 1b (Huh-9B). Kind of series: HCV replicon activity, luciferase detection on the replicon plate. Type of series: cell-based, HCV genotype 1b. The note with it: Huh-9B replicon cells, luciferase signal. The text has this:
1b replicon (Huh.7) described in Science 285, 110-113. • Huh-9B: liver cell line with persistent bicistronic HCV genotype 1b coding sequence: [I3891ucubineo—3-3′_ET] includes firefly luciferase-ubiquitin-neomycin phosphotransferase fusion protein and EMCV-IRES driven non-structural HCV (NS3 to NS5B) coding sequence including cell culture adaptive mutations E1202G, […] and K1846T (Lohmann et al, 2001).
This assay is set up using all 96 wells of flat-bottomed 96-well plates. Plates are set up one day before addition of compounds. The assay then runs for 4 days with ELISA development taking place on the 5th day.
Exponentially growing Huh-9B monolayers are washed with sterile PBS to remove serum and treated with trypsin to detach cells from the flask.
(§1) Cells are suspended in growth media and counted using a haemocytometer. Duplicate 96 well plates are seeded with Huh-9B at a density of 10^4 cells/well in a total volume of 100 μl/well of growth medium without antibiotics as depicted below.
(§2) One of the plates is an opaque white 96-well plate used for IC50 determination based on the luciferase signal (referred as replicon plate), the other one is a clear 96-well plate used for a parallel determination of drug toxicity by methylene blue staining (referred as tox plate). Wells G12 and H12 of the tox plate are left without cells to use as buffer alone background reading.
Plates are then incubated at 37° C. in a 5% CO2 environment for 24 h to obtain a 90% confluent cell monolayer.
(§3) Doubling dilutions of each compound are generated in a separate 96 high volume capacity round bottom plate to twice their initial concentration in the assay using growth medium without antibiotics.
Five compounds (C1 to C5) are tested on each assay plate as illustrated below plus a control compound that is also included in each plate.
(§4) Compounds are tested across an 8 point doubling dilution series. The initial dilution of each compound to be tested is 25 μM and 12.5 μM for the control compound.
DMSO only wells (A1 and A2) at 1% provide the signal corresponding to maximal (100%) luciferase detection. […] The signal from the DMSO wells at 1% (maximal signal) constitutes the assay window.
(§5) For each compound dilution on the 2×96-well dilution plate 100 μl are transferred using a multichannel pipette onto the replicon and tox plates mirror wells which contain […] of medium to obtain the desired final concentration.
Media is tapped out from wells into Virkon and plates are washed once in warm PBS and tapped dry gently.
For each well 20 μl of lysis buffer is added by multichannel pipette. Lysates are stable at this point for several hours.
Luciferase assay buffer is placed it in the luminometer (Lmax, Molecular Devices).
The M injector is primed with 4×300 μl of luciferase assay buffer. The plate to be analyzed is placed in the luminometer and […] of luciferase assay buffer injected automatically into one well followed by 4 seconds integration read out.
After one second delay a second well is injected with 100 μl of luciferase assay buffer followed by 4 seconds integration read out and so forth until all 96 wells are analyzed.
Once the reading is finished the luminometer injection system is washed with deionised water.
The data is acquired using the SOFTmax for Lmax Pro software package.
(§6) SOFTmax data files are exported as Excel or text files. A standard four parameters non-linear regression analysis of the data obtained from each compound is then used to calculate the IC50.
(§7) In the above analysis all replicate wells are meaned. The % of control is then calculated for each concentration point as a percentage of the DMSO control wells.

Another series has as its system Huh-9B. Kind of series: Toxicity determination on the tox plate by methylene blue staining. Type of series: cell-based. As to conditions: Huh-9B cells, parallel tox plate. Here is the method:
as §1, §2, §3, §4, §5
Media is tapped out from wells into Virkon and plates tapped dry gently. To each well 100 μl of 0.5% solution of methylene blue in 50% methanol is added to all wells including blanks (G12 and H12). Plates are left at RT for a minimum of 1 h. Plates are then rinsed gently by immersing in a plastic box with water, tapped dry gently and left open until they are fully dry. Dye is solubilized adding 100 μl of 1% lauroylsarcosine to each well and shaking for 1 h at 37° C. Plates are read on the SpectraMax spectrophotometer at 620 nm wavelength using the SOFTmax Pro software package.
as §6, §7

As to `Cc1cc(-n2cncn2)ccc1Nc1ncnc2ccc(Br)cc12` [Example 33], the IC50 (usually the concentration that gives 50% inhibition) against HCV replicon 1b (Huh-9B) was under 5 µM. In the series on Huh-9B, the “Replicon TD50” value is “** (** >25 μM)”.

For the compound `c1nc(Nc2ccc(-n3cncn3)cc2)c2cc(-c3ccc4c(c3)OCCO4)ccc2n1` [Example 15, [6-(2,3-Dihydro-benzo[1,4]dioxin-6-yl)-quinazolin-4-yl]-(4-[1,2,4]triazol-1-yl-phenyl)-amine], in the series on HCV replicon 1b (Huh-9B) (Hepatitis C virus), the IC50 is under 5 µM. Also, the “Replicon TD50” value in the series on Huh-9B is reported as “** (** >25 μM)”.

With `c1cc(COc2ccc(-c3ccc4ncnc(Nc5ccc(-n6cncn6)cc5)c4c3)cc2)ccn1` [Example 13], the IC50 at HCV replicon 1b (Huh-9B) was in the range of 5 to 20 µM. Besides, the “Replicon TD50” value in the series with Huh-9B is on record as “* (* <25 μM)”.

In the series with HCV replicon 1b (Huh-9B) (Hepatitis C virus), `CN(C)CCOc1ccc(-c2ccc3ncnc(Nc4ccc(-n5cncn5)cc4)c3c2)cc1F` [Example 20, {6-[4-(2-Dimethylamino-ethoxy)-3-fluoro-phenyl]-quinazoline-4-yl}-(4-[1,2,4]triazole-1-yl-phenyl)amine] gave an IC50 of under 5 µM. Besides, in the series with Huh-9B, the “Replicon TD50” value is reported as “* (* <25 μM)”.

Take “1-(4-{6-[3-Fluoro-4-(2-methoxy-ethoxy)-phenyl]-quinazolin-4-ylamino}-phenyl)-5-methyl-1H-[1,2,4]triazole-3-carboxylic acid [Example 28]”: at HCV replicon 1b (Huh-9B), the IC50 fell in the range of 5 to 20 µM. Also, in the series with Huh-9B, the “Replicon TD50” value was “** (** >25 μM)”.

`c1csc(-c2ccc3ncnc(Nc4ccc(-n5cncn5)cc4)c3c2)c1` [Example 17, (6-Thiophen-2-yl-quinazolin-4-yl)-(4-[1,2,4]triazol-1-yl-phenyl)-amine]: the IC50 in the series with HCV replicon 1b (Huh-9B) (Hepatitis C virus) was under 5 µM. Further, the “Replicon TD50” value in the series with Huh-9B is “** (** >25 μM)”.

Compound `COc1cc2c(Nc3ccc(-n4cncn4)cc3)ncnc2cc1OCCCCl` [Example 3, [7-(3-Chloro-propoxy)-6-methoxy-quinazolin-4-yl]-(4-[1,2,4]triazol-1-yl-phenyl)amine] showed a half-inhibitory concentration (IC50) in the series with HCV replicon 1b (Huh-9B) (Hepatitis C virus) of under 5 µM. Further, in the series on Huh-9B, the “Replicon TD50” value is “** (** >25 μM)”.

Turning to `COc1ccc(-c2ccc3ncnc(Nc4ccc(-n5cncn5)cc4C)c3c2)cc1OC` [Example 27, [6-(3,4-Dimethoxy-phenyl)-quinazolin-4-yl]-(2-methyl-4-[1,2,4]triazol-1-yl-phenyl)-amine], the IC50 in the series on HCV replicon 1b (Huh-9B) (Hepatitis C virus) was under 5 µM. In addition, in the series on Huh-9B, the “Replicon TD50” value was “* (* <25 μM)”.

Compound `CCOc1ccc(-c2ccc3ncnc(Nc4ccc(-n5cncn5)cc4)c3c2)cc1OCC` [Example 11, [6-(3,4-Diethoxy-phenyl)-quinazolin-4-yl]-(4-[1,2,4]triazol-1-yl-phenyl)-amine] had an IC50 in the series with HCV replicon 1b (Huh-9B) (Hepatitis C virus) of under 5 µM. Moreover, the “Replicon TD50” value in the series with Huh-9B is reported as “** (** >25 μM)”.

The compound `COc1ccc(-c2ccc3ncnc(Nc4ccc(-n5cncn5)cc4)c3c2)cc1F` [Example 7, [6-(3-Fluoro-4-methoxy-phenyl)-quinazolin-4-yl]-(4-[1,2,4]triazol-1-yl-phenyl)-amine] showed an IC50 with HCV replicon 1b (Huh-9B) (Hepatitis C virus) of under 5 µM. For the same compound, the “Replicon TD50” value with Huh-9B was “** (** >25 μM)”.

For `COCCOc1ccc(-c2ccc3ncnc(Nc4ccc(-n5cncn5)cc4)c3c2)cc1F` [Example 9, {6-[3-Fluoro-4-(2-methoxy-ethoxy)-phenyl]-quinazolin-4-yl}-(4-[1,2,4]triazol-1-yl-phenyl)-amine], the IC50 with HCV replicon 1b (Huh-9B) (Hepatitis C virus) was under 5 µM. For the same compound, the “Replicon TD50” value in the series with Huh-9B is listed as “** (** >25 μM)”.

`Fc1ccc(-c2ccc3ncnc(Nc4ccc(-n5cncn5)cc4)c3c2)cc1F` [Example 5, [6-(3,4-Difluoro-phenyl)-quinazolin-4-yl]-(4-[1,2,4]triazol-1-yl-phenyl)-amine] came in with a half-inhibitory concentration (IC50) in the series with HCV replicon 1b (Huh-9B) (Hepatitis C virus) of under 5 µM. Further, the “Replicon TD50” value in the series with Huh-9B is on record as “** (** >25 μM)”.

In the series on HCV replicon 1b (Huh-9B) (Hepatitis C virus), `Fc1cc(-c2ccc3ncnc(Nc4ccc(-n5cncn5)cc4)c3c2)ccc1OCCCN1CCCC1` [Example 25, {6-[3 fluoro-4-(3-pyrrolidin-1-yl-propoxy)-phenyl]-quinazoline-4-yl}-(4-[1,2,4]triazole-1-yl-phenyl)amine] gave an IC50 of under 5 µM. Further, the “Replicon TD50” value in the series on Huh-9B is listed as “* (* <25 μM)”.

`Fc1cc(-c2ccc3ncnc(Nc4ccc(-n5cncn5)cc4)c3c2)ccc1OCCCN1CCOCC1` [Example 26, {6-[3-fluoro-4-(3-morpholin-4-yl-propoxy)-phenyl]-quinazoline-4-yl}-(4-[1,2,4]triazole-1-yl-phenyl)amine] came in with an IC50 in the series with HCV replicon 1b (Huh-9B) (Hepatitis C virus) of under 5 µM. Also, the “Replicon TD50” value with Huh-9B is recorded as “* (* <25 μM)”.

The compound `CN(C)CCN(C)CCOc1ccc(-c2ccc3ncnc(Nc4ccc(-n5cncn5)cc4)c3c2)cc1F` [Example 22, N-(2-{2-Fluoro-4-[4-(4-[1,2,4]triazol-1-yl-phenylamino)-quinazolin-6-yl]-phenoxy}-ethyl)-N,N′,N′-trimethyl-ethane-1,2-diamine] returned an IC50 in the series on HCV replicon 1b (Huh-9B) (Hepatitis C virus) of under 5 µM. Further, the “Replicon TD50” value with Huh-9B is “* (* <25 μM)”.

Turning to `CNC(=O)c1nc(C)n(-c2ccc(Nc3ncnc4ccc(-c5ccc(OCCOC)c(F)c5)cc34)cc2)n1` [Example 31, 1-(4-{6-[3-Fluoro-4-(2-methoxy-ethoxy)-phenyl]-quinazolin-4-ylamino}-phenyl)-5-methyl-1H-[1,2,4]triazole-3-carboxylic acid methylamide], the IC50 in the series on HCV replicon 1b (Huh-9B) (Hepatitis C virus) was under 5 µM. In addition, the “Replicon TD50” value in the series with Huh-9B is given as “** (** >25 μM)”.

Take `CC(C)(C)c1ccc2ncnc(Nc3ccc(-n4cncn4)cc3)c2c1` [Example 2, (6-tert-Butyl-quinazolin-4-yl)-(4-[1,2,4]triazol-1-yl-phenyl)-amine]: in the series with HCV replicon 1b (Huh-9B) (Hepatitis C virus), the IC50 lay within 5 to 20 µM. In the series with Huh-9B, the “Replicon TD50” value is “** (** >25 μM)”.

`c1nc(Nc2ccc(-n3cncn3)cc2)c2cc(-c3ccc(N4CCOCC4)cc3)ccc2n1` [Example 14] had an IC50 against HCV replicon 1b (Huh-9B) of under 5 µM. In the series with Huh-9B, the “Replicon TD50” value is on record as “* (* <25 μM)”.

In the series with HCV replicon 1b (Huh-9B) (Hepatitis C virus), `Fc1cc(-c2ccc3ncnc(Nc4ccc(-n5cncn5)cc4)c3c2)ccc1Cl` [Example 6, [6-(4-Chloro-3-fluoro-phenyl)-quinazolin-4-yl]-(4-[1,2,4]triazol-1-yl-phenyl)-amine] gave an IC50 of over 20 µM. Further, the “Replicon TD50” value with Huh-9B is reported as “** (** >25 μM)”.

With `CCOc1ccc(-c2ccc3ncnc(Nc4ccc(-n5cncn5)cc4)c3c2)cc1F` [Example 8, [6-(4-Ethoxy-3-fluoro-phenyl)-quinazolin-4-yl]-(4-[1,2,4]triazol-1-yl-phenyl)-amine], the IC50 with HCV replicon 1b (Huh-9B) (Hepatitis C virus) is under 5 µM. Also, in the series with Huh-9B, the “Replicon TD50” value is listed as “** (** >25 μM)”.

Regarding `COc1ccc(-c2ccc3ncnc(Nc4ccc(-n5cncn5)cc4)c3c2)cc1OC(C)C` [Example 23, [6-(3-Isopropoxy-4-methoxy-phenyl)-quinazolin-4-yl]-(4-[1,2,4]triazol-1-yl-phenyl)-amine], in the series on HCV replicon 1b (Huh-9B) (Hepatitis C virus), the IC50 was under 5 µM. Besides, in the series on Huh-9B, the “Replicon TD50” value is given as “* (* <25 μM)”.

Take `Ic1ccc2ncnc(Nc3ccc(-n4cncn4)cc3)c2c1` [Example 1, (6-Iodo-quinazolin-4-yl)-(4-[1,2,4]triazol-1-yl-phenyl)-amine]: in the series on HCV replicon 1b (Huh-9B) (Hepatitis C virus), the IC50 was under 5 µM. Also, in the series with Huh-9B, the “Replicon TD50” value is “* (* <25 μM)”.

In the series on HCV replicon 1b (Huh-9B) (Hepatitis C virus), `CC(C)Oc1cc(-c2ccc3ncnc(Nc4ccc(-n5cncn5)cc4)c3c2)ccc1F` [Example 24, [6-(4-Fluoro-3-isopropoxy-phenyl)-quinazolin-4-yl]-(4-[1,2,4]triazol-1-yl-phenyl)-amine] showed an IC50 of under 5 µM. For the same compound, in the series with Huh-9B, the “Replicon TD50” value is “** (** >25 μM)”.

For the compound `COCCOc1ccc(-c2ccc3ncnc(Nc4ccc(-n5nc(C(=O)N6CCN(C)CC6)nc5C)cc4)c3c2)cc1F` [Example 34, [1-(4-{6-[3-Fluoro-4-(2-methoxy-ethoxy)-phenyl]-quinazolin-4-ylamino}-phenyl)-5-methyl-1H-[1,2,4]triazole-3-yl]-(4-methyl-piperazin-1-yl)methanone], the IC50 in the series on HCV replicon 1b (Huh-9B) (Hepatitis C virus) is under 5 µM. The “Replicon TD50” value in the series on Huh-9B is given as “** (** >25 μM)”.

Values taken from patent US20100158863A1, “TRIAZOLOANILINOPYRIMIDINE DERIVATIVES FOR USE AS ANTIVIRAL AGENTS” (ARROW THERAPEUTICS LIMITED, priority 2006, published 2010).
